Among the data in patent publication US7173004B2, “Macrocyclic isoquinoline peptide inhibitors of hepatitis C virus” (Bristol-Myers Squibb Company, priority 2003, dated 2007) are IC50 values, retold here.

The term IC50 denotes the concentration that gives 50% inhibition.

For assay [1], the target named is T1, human neutrophil elastase (HNE) (Homo sapiens, UniProt P08246).
T1 construct: purchased Sigma
T1 sequence (P08246 30-267): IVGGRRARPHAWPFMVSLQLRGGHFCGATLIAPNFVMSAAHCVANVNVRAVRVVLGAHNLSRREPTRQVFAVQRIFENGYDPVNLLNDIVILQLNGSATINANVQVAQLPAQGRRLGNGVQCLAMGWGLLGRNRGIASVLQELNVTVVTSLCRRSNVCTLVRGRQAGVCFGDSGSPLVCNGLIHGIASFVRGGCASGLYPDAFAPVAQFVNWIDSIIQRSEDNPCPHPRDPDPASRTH
The assay is described as follows: Specificity assay, human neutrophil elastase. It counts as biochemical. The conditions noted are these: read-out: HNE activity in the specificity assays (IC50). As to the method: (§1) The specificities of compounds of the present invention were determined against a variety of serine proteases: human neutrophil elastase (HNE), porcine pancreatic elastase (PPE) and human pancreatic chymotrypsin and one cysteine protease: human liver cathepsin B. In all cases a 96-well plate format protocol using calorimetric p-nitroaniline (pNA) substrate specific for each enzyme was used as described previously (PCT Patent Application No. WO 00/09543) with some modifications to the serine protease assays. All enzymes were purchased from Sigma while the substrates were from Bachem.
(§2) Each assay included a 2 hr enzyme-inhibitor pre-incubation at room temperature followed by addition of substrate and hydrolysis to ˜30% conversion as measured on a Spectramax Pro microplate reader. Compound concentrations varied from 100 to 0.4 micromolar (“μM”) depending on their potency. […]
(§3) The percentage of inhibition was calculated using the formula: [1−((UVinh−UVblank)/(UVctl−UVblank))]×100 […]

A further assay concerns the target T2, human liver cathepsin B (Homo sapiens, UniProt P07858).
T2 construct: purchased Sigma; host or cells: human liver (by the enzyme's name)
Put plainly: Specificity assay, cathepsin B. The conditions noted are these: read-out: Cathepsin B activity in the specificity assays (IC50). The format is biochemical. As to the method: as §1, §2, §3

Bounds are passed on as bounds.

For `CC(C)(C)OC(=O)N[C@H]1CCCCC/C=C\[C@@H]2C[C@@]2(C(=O)NS(C)(=O)=O)NC(=O)[C@@H]2C[C@@H](Oc3nccc4ccccc34)CN2C1=O` [Compound 2, [18-(Isoquinolin-1-yloxy)-4-methanesulfonylaminocarbonyl-2,15-dioxo-3,16-diaza-tricyclo[14.3.0.0^4,6]nonadec-7-en-14-yl]-carbamic acid tert-butyl ester], the IC50 (in assay [1]; at human liver cathepsin B) was more than 100 µM in each case.
